Source: patent US20230002361A1, “2H-INDAZOLE DERIVATIVES AND THEIR USE IN THE TREATMENT OF DISEASE” (BIOGEN MA INC., priority 2019, published 2023)
pIC50: −log10 of the molar value. Structures can show the parent of a compound that is named as a salt.

Experiments:
IRAK4 = molecular target: T1, IRAK4 (Homo sapiens, UniProt Q9NWZ3); assay: IRAK4 MSD Biochemical Assay (1 mM ATP, 2 h); settings: room temperature, read-out: IRAK4 MSD Biochemical Assay (1 mM ATP, 2 h) IC50
T1 construct: with 0.1 nM IRAK4, 1.6 μM of biotinylated peptide substrate and 10 μM ATP
T1 sequence (Q9NWZ3 1-460): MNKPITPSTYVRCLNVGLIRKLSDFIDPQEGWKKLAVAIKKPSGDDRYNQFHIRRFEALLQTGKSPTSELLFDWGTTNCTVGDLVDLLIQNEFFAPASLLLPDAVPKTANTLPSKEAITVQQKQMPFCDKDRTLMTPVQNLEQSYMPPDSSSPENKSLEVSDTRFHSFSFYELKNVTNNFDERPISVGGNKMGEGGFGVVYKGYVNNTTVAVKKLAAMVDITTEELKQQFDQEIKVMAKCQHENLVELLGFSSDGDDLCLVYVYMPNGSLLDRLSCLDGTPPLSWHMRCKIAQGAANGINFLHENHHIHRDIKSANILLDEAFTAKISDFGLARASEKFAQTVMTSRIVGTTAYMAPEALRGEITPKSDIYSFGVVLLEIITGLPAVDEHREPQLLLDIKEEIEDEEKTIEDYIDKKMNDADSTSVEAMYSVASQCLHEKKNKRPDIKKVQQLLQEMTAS
Procedure, shortened: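 Run with 1 mM ATP and […] for 2 h, then quenched with EDTA, pH 8. The phosphorylated biotinylated peptide was captured on streptavidin plates and detected with anti-phospho-threonine antibody plus Sulfo-Tag secondary by MSD electrochemiluminescence.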

MDR1 (P-gp) = molecular target: T2, MDR1 (P-gp) (Homo sapiens, UniProt P08183); assay: MDR1-MDCK assay (efflux ratio); format: in vitro ADME; settings: human, MDCK-MDR1, 1 μM compound, 120 minutes incubation; read-out: MDR1-MDCK Efflux Ratio; (B-A/A-B)
T2 construct: host or cells: MDCK cells
T2 sequence (P08183 whole entry): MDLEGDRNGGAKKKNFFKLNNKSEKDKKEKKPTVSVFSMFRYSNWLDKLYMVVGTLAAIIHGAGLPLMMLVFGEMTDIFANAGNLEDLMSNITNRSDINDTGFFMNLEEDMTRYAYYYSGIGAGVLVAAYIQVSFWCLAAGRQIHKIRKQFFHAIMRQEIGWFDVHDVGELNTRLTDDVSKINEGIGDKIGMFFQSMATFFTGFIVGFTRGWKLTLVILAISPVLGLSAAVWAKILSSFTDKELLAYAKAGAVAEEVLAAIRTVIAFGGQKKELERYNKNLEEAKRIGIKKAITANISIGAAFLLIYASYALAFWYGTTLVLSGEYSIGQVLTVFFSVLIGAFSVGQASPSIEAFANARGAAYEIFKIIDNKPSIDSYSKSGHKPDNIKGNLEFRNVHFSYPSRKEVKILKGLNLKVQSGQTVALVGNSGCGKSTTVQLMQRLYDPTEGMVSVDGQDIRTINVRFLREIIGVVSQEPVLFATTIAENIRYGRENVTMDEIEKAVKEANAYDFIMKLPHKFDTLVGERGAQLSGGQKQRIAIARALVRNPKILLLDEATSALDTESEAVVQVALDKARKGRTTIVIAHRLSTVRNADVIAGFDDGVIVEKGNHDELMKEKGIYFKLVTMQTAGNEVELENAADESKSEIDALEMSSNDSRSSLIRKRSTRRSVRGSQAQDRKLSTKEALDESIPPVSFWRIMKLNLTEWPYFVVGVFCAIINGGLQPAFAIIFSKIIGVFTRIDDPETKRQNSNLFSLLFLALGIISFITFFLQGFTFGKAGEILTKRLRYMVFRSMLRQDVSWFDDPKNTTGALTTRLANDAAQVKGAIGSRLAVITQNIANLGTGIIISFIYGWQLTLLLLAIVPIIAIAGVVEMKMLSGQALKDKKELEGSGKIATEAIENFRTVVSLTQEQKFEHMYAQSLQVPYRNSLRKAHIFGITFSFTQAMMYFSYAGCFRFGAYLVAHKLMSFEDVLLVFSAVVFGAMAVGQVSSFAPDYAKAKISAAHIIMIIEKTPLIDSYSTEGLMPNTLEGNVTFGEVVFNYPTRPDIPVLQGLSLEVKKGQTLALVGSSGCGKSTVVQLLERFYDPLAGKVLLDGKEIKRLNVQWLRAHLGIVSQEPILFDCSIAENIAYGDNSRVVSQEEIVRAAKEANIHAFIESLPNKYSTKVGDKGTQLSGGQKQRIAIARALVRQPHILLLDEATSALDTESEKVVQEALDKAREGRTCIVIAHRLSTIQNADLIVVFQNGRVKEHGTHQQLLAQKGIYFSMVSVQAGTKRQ
Procedure, shortened: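 Human MDR1-transfected MDCK monolayers, cultured 7 days on transwell inserts with TEER checked, were dosed with compound at 1 μM in HBSS-HEPES. Transport was measured in both A-B and B-A directions. Efflux ratio came from the directional permeabilities, with mass balance also calculated.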

pIC50 (IRAK4)	efflux ratio at 120 min, 1 μM (MDR1 (P-gp))	Compound
9.40	0.9	CC(C)Oc1cc2nn(C34CCC(C)(CC3)OC4)cc2cc1C(=O)Nc1cccn(C)c1=O [Example 58, 6-Isopropoxy-N-(1-methyl-2-oxo-1,2-dihydropyridin-3-yl)-2-(1-methyl-2-oxabicyclo[2.2.2]octan-4-yl)-2H-indazole-5-carboxamide Trifluoroacetate]
9.00	0.4	COCCC(C)n1cc2cc(C(=O)Nc3cccc(C(F)F)n3)c(OC(C)C)cc2n1.Cl (centres unmarked) [Example 59, N-(6-(difluoromethyl)pyridin-2-yl)-6-isopropoxy-2-(4-methoxybutan-2-yl)-2H-indazole-5-carboxamide hydrochloride]
8.66	1.5	COCCCn1cc2cc(C(=O)Nc3cccc(C(F)(F)F)n3)c(OC(C)C)nc2n1.Cl [Example 60, 6-Isopropxy-2-(3-methoxypropyl)-N-(6-(trifluoromethyl)pyridin-2-yl)-2H-pyrazolo[3,4-b]pyridine-5-carboxamide hydrochloride]
8.43	1.1	COCCCn1cc2cc(C(=O)Nc3cccc(OC)n3)c(OC(C)C)nc2n1.Cl [Example 61, 6-Isopropoxy-2-(3-methoxypropyl)-N-(6-methoxypyridin-2-yl)-2H-pyrazolo[3,4-b]pyridine-5-carboxamide hydrochloride]
9.22	1.7	COCCCn1cc2cc(C(=O)Nc3cccc(C(F)F)n3)c(OC(C)C)nc2n1.Cl [Example 62, N-(6-(difluoromethyl)pyridin-2-yl)-6-isopropoxy-2-(3-methoxsypropyl)-2H-pyrazolo[3,4-b]pyridine-5-carboxamide hydrochloride]
9.52	1	CC(C)Oc1nc2nn(C3CCOCC3)cc2cc1C(=O)Nc1cccc(C(F)F)n1 [Example 63, N-(6-(difluoromethyl)pyridin-2-yl)-6-isopropoxy-2-(tetrahydro-2H-pyran-4-yl)-2H-pyrazolo[3,4-b]pyridine-5-carboxamide]
8.85	0.9	COc1cccc(NC(=O)c2cc3cn(C4CCOCC4)nc3cc2OC(C)C)n1 [Example 66, 6-Isopropoxy-N-(6-methoxypyridin-2-yl)-2-(tetrahydro-2H-pyran-4-yl)-2H-indazole-5-carboxamide]
8.02	4.6	CC(C)Oc1cc2nn(C3CCOCC3)cc2cc1C(=O)Nc1ccn(C)n1 [Example 67, 6-Isopropoxy-N-(1-methyl-1H-pyrazol-3-yl)-2-(tetrahydro-2H-pyran-4-yl)-2H-indazole-5-carboxamide]
8.70	1.4	Cc1cccc(NC(=O)c2cc3cn(C4CCOCC4)nc3cc2OC(C)C)c1F [Example 68, N-(2-fluoro-3-methylphenyl)-6-isopropoxy-2-(tetrahydro-2H-pyran-4-yl)-2H-indazole-5-carboxamide]
9.00	1	COc1ncccc1NC(=O)c1cc2cn(C3CCOCC3)nc2cc1OC(C)C [Example 69, 6-Isopropoxy-N-(2-methoxypyridin-3-yl)-2-(tetrahydro-2H-pyran-4-yl)-2H-indazole-5-carboxamide]
8.06	1.1	CC(C)Oc1cc2nn(C3CCOCC3)cc2cc1C(=O)Nc1cccnc1OC(F)F.Cl [Example 70, N-(2-(difluoromethoxy)pyridin-3-yl)-6-isopropoxy-2-(tetrahydro-2H-pyran-4-yl)-2H-indazole-5-carboxamide hydrochloride]
8.18	1.6	CC(C)Oc1cc2nn(C3CCOCC3)cc2cc1C(=O)Nc1cccn2nccc12.Cl [Example 71, 6-Isopropoxy-N-(pyrazolo[1,5-a]pyridin-4-yl)-2-(tetrahydro-2H-pyran-4-yl)-2H-indazole-5-carboxamide hydrochloride]
9.10	2.1	CC(C)Oc1cc2nn(C3CCOCC3)cc2cc1C(=O)Nc1cnn2cccnc12 [Example 72, 6-Isopropoxy-N-(pyrazolo[1,5-a]pyrimidin-3-yl)-2-(tetrahydro-2H-pyran-4-yl)-2H-indazole-5-carboxamide]
8.74	0.7	CC(C)Oc1cc2nn(C3CCOCC3)cc2cc1C(=O)Nc1cccc2c1OCC2.Cl [Example 73, N-(2,3-dihydrobenzofuran-7-yl)-6-isopropoxy-2-(tetrahydro-2H-pyran-4-yl)-2H-indazole-5-carboxamide hydrochloride]
9.40	0.5	CO[C@H]1C[C@H](n2cc3cc(C(=O)Nc4cccc(C(F)F)n4)c(OC(C)C)cc3n2)C1 [Example 74, N-(6-(difluoromethyl)pyridin-2-yl)-6-isopropoxy-2-((1R,3R)-3-methoxycyclobutyl)-2H-indazole-5-carboxamide]
8.96	2.9	O=C(Nc1cccc(C(F)F)n1)c1cc2cn(C3CCOCC3)nc2cc1OC1CCOC1 (centres unmarked) [Example 75, N-(6-(difluoromethyl)pyridin-2-yl)-2-(tetrahydro-2H-pyran-4-yl)-6-((tetrahydrofuran-3-yl)oxy)-2H-indazole-5-carboxamide]
7.87	1.9	CC(C)Oc1nc2nn(CC3CCOC3)cc2cc1C(=O)Nc1ccccn1 (centres unmarked) [Example 77, 6-Isopropoxy-N-(pyridin-2-yl)-2-((tetrahydrofuran-3-yl)methyl)-2H-pyrazolo[3,4-b]pyridine-5-carboxamide]
8.92	1.4	COc1ncccc1NC(=O)c1cc2cn(CC3CCOC3)nc2nc1OC(C)C (centres unmarked) [Example 78, 6-Isopropoxy-N-(2-methoxypyridin-3-yl)-2-((tetrahydrofuran-3-yl)methyl)-2H-pyrazolo[3,4-b]pyridine-5-carboxamide]
7.97	9.4	CC(C)Oc1nc2nn(CC3CCOC3)cc2cc1C(=O)Nc1ccn(C)n1 (centres unmarked) [Example 79, 6-Isopropoxy-N-(1-methyl-1H-pyrazol-3-yl)-2-((tetrahydrofuran-3-yl)methyl)-2H-pyrazolo[3,4-b]pyridine-5-carboxamide]
8.19	3.1	CC(C)Oc1nc2nn(CC3CCOC3)cc2cc1C(=O)Nc1ccn(C(F)F)n1 (centres unmarked) [Example 80, N-(1-(difluoromethyl)-1H-pyrazol-3-yl)-6-isopropoxy-2-((tetrahydrofuran-3-yl)methyl)-2H-pyrazolo[3,4-b]pyridine-5-carboxamide]
8.00	5.9	CC(C)Oc1nc2nn(CC3CCOC3)cc2cc1C(=O)Nc1cc(F)cn(C)c1=O (centres unmarked) [Example 81, N-(5-fluoro-1-methyl-2-oxo-1,2-dihydroxypyridin-3-yl)-6-isopropxy-2-((tetrahydrofuran-3-yl)methyl)-2H-pyrazolo[3,4-b]pyridine-5-carboxamide]
8.92	2.6	CC(C)Oc1nc2nn(C3CCOCC3)cc2cc1C(=O)Nc1cnn2cccnc12 [Example 82, 6-Isopropoxy-N-(pyrazolo[1,5-a]pyrimidin-3-yl)-2-(tetrahydro-2H-pyran-4-yl)-2H-pyrazolo[3,4-b]pyridine-5-carboxamide]
